≈ marks a conversion by molar mass, not a printed value.
What was measured:
[1] = tested on: Escherichia coli ATCC25922; conditions: comparison values; ref Zeng et al., 2004, 2012; Cao et al., 2012a; cited from earlier work
Excerpt: (§1) Table 1 In Vitro antimicrobial activities of marcin-18 and its homologs compared with other peptides and antibiotics. | column: MIC (μM) / BmKn2; MIC (μM) / Amp; MIC (μM) / Kana

[2] = tested on: Staphylococcus aureus AB94004; conditions: comparison values; ref Zeng et al., 2004, 2012; Cao et al., 2012a; cited from earlier work
Excerpt: as §1

[3] = tested on: Staphylococcus aureus ATCC25923; conditions: comparison values; ref Zeng et al., 2004, 2012; Cao et al., 2012a; cited from earlier work
Excerpt: Table 1 In Vitro antimicrobial activities of marcin-18 and its homologs compared with other peptides and antibiotics. | column: MIC (μM) / BmKn2; MIC (μM) / Kana

[4] = tested on: Staphylococcus aureus AB94004; experiment: MIC, broth microdilution; type: cell-based; conditions: legend of Figure 6
Protocol: The antimicrobial activity was determined via a broth microdilution assay according to the procedure recommended by the Clinical and Laboratory Standards Institute with some modifications ([Hou et al., 2011]; [Li et al., 2016]). Bacteria were cultured in Luria-Bertani (LB) broth to OD600 = 0.6 at 37°C, then diluted to 10^5–10^6 CFU/mL in LB medium. Peptides were serially double diluted to a gradient concentration range from 48.3 to 1.5 μM in physiological saline. Eighty microliters of the bacterial suspension and 20 μL of diluted peptide at varying concentrations were added to 96-well plates, and then incubated for 16–18 h at 37°C with continuous shaking at 250 rpm. The antimicrobial activity of ampicillin and kanamycin were also tested as positive controls. Experiments were performed in triplicate. The minimum inhibitory concentration (MIC) was determined as the lowest peptide concentration at which no bacterial growth was observed.

[5] = tested on: Bacillus subtilis AB91021; conditions: comparison values; ref Zeng et al., 2004, 2012; Cao et al., 2012a; cited from earlier work
Excerpt: Table 1 In Vitro antimicrobial activities of marcin-18 and its homologs compared with other peptides and antibiotics. | column: MIC (μM) / BmKn2; MIC (μM) / BmKb1; MIC (μM) / Kana

[6] = tested on: MRSA P1381; experiment: Mouse peritonitis model; type: in vivo, BALB/c mice; conditions: n = 6
Protocol: Six to eight-week-old male BALB/c mice (18–21 g) were purchased from the Animal Center for Disease Control and Prevention (Hubei, China) and maintained under specific pathogen-free conditions at 25 ± 2°C and 50 ± 5% humidity, on a 12 h/12 h light/dark cycle.
All methods were performed in accordance with the relevant guidelines ([Dai et al., 2008]; [Peng et al., 2017]). The mice were intraperitoneally (i.p.) injected with 0.5 mL/mouse (5.85 × 10^7 CFU) of the exponential phase MRSA P1381 inoculum in physiological saline containing 5% (wt/v) mucin. At 1 h after the bacterial infection, the mice were i.p. injected with 0.4 mL/mouse of physiological saline (I) (to serve as a negative control), marcin-18 peptide (10 mg/kg) (II), marcin-18 peptide (25 mg/kg) (III), meucin-18 peptide (25 mg/kg) (IV), megicin-18 peptide (25 mg/kg) (V), and vancomycin (25 mg/kg) (VI). The vancomycin dose was set based on previous studies ([Cavanagh et al., 2013]; [Wang et al., 2018]). Each group included 6 mice. After another 24 h post administration, subject peritonea were lavaged with 1 mL of physiological saline and lavage fluids were then collected. Ascites were diluted and plated on LB agar so that the number of bacterial colonies could be counted. The ability of the three peptides to rescue mice from lethal bacteremia was observed 2–4 times daily and survival was tracked for 7 days.

[7] = tested on: PRSA P1389; conditions: penicillin-resistant clinical isolate; comparison values; ref Zeng et al., 2004, 2012; Cao et al., 2012a; cited from earlier work
Excerpt: (§2) Table 1 In Vitro antimicrobial activities of marcin-18 and its homologs compared with other peptides and antibiotics. | column: MIC (μM) / BmKn2; MIC (μM) / Van

[8] = tested on: MRSA P1374; conditions: methicillin-resistant clinical isolate; comparison values; ref Zeng et al., 2004, 2012; Cao et al., 2012a; cited from earlier work
Excerpt: as §2

[9] = tested on: MRSA P1386; conditions: methicillin-resistant clinical isolate; comparison values; ref Zeng et al., 2004, 2012; Cao et al., 2012a; cited from earlier work
Excerpt: as §2

[10] = tested on: PRSA P1383; conditions: penicillin-resistant clinical isolate; comparison values; ref Zeng et al., 2004, 2012; Cao et al., 2012a; cited from earlier work
Excerpt: as §2

[11] = tested on: MRSA P1381; conditions: methicillin-resistant clinical isolate; comparison values; ref Zeng et al., 2004, 2012; Cao et al., 2012a; cited from earlier work
Excerpt: as §2

[12] = tested on: MRSA P1369; conditions: methicillin-resistant clinical isolate; comparison values; ref Zeng et al., 2004, 2012; Cao et al., 2012a; cited from earlier work
Excerpt: as §2

Question: With `CC1(C)S[C@@H]2[C@H](NC(=O)[C@H](N)c3ccccc3)C(=O)N2[C@H]1C(=O)O` [Amp, ampicillin] as the compound, how does the MIC [1] read?
Answer: 33.7 µM (≈ 11.8 µg/mL)

Question: And the MIC [2]?
Answer: 67.3 µM (≈ 23.5 µg/mL)

Question: For `NC[C@H]1O[C@H](O[C@H]2[C@H](O)[C@@H](O[C@H]3O[C@H](CO)[C@@H](O)[C@H](N)[C@H]3O)[C@H](N)C[C@@H]2N)[C@H](O)[C@@H](O)[C@@H]1O` [Kana, kanamycin], which MIC [1] is on record?
Answer: 21.5 µM (≈ 10.4 µg/mL)

Question: What about the MIC [2] of the same compound?
Answer: 5.4 µM (≈ 2.62 µg/mL)

Question: What about the MIC [3] of the same compound?
Answer: 10.7 µM (≈ 5.18 µg/mL)

Question: What about the “MIC of control substances” value [4] of the same compound?
Answer: 5.4 µM

Question: What about the MIC [5] of the same compound?
Answer: 42.9 µM (≈ 20.8 µg/mL)

Question: What does the source list for `CN[C@H](CC(C)C)C(=O)N[C@H]1C(=O)N[C@@H](CC(N)=O)C(=O)N[C@H]2C(=O)N[C@H]3C(=O)N[C@H](C(=O)N[C@H](C(=O)O)c4cc(O)cc(O)c4-c4cc3ccc4O)[C@H](O)c3ccc(c(Cl)c3)Oc3cc2cc(c3O[C@@H]2O[C@H](CO)[C@@H](O)[C@H](O)[C@H]2O[C@H]2C[C@](C)(N)[C@H](O)[C@H](C)O2)Oc2ccc(cc2Cl)[C@H]1O` [Van, vancomycin]?
Answer: survival of infected mice ([6]; 25 mg/kg i.p. single dose 1 h after i.p. 5.85 × 10^7 CFU MRSA P1381, 7 days): 100%; bacteria in ascites of antibiotic-treated group ([6]; 25 mg/kg i.p., peritoneal lavage 24 h after administration): few detectable bacteria; MIC [7]: 4.2 µM (≈ 6.09 µg/mL); MIC [8]: 4.2 µM (≈ 6.09 µg/mL); MIC [9]: 2.1 µM (≈ 3.04 µg/mL); MIC [10]: 4.2 µM (≈ 6.09 µg/mL); MIC [11]: 2.1 µM (≈ 3.04 µg/mL); MIC [12]: 4.2 µM (≈ 6.09 µg/mL)

Question: With `CC[C@H](C)[C@H](NC(=O)CN)C(=O)NCC(=O)N[C@@H](C)C(=O)N[C@H](C(=O)N[C@@H](CC(C)C)C(=O)N[C@@H](CCCCN)C(=O)N[C@H](C(=O)N[C@@H](CC(C)C)C(=O)N[C@H](C(=O)N[C@H](C(=O)NCC(=O)N[C@@H](CC(C)C)C(=O)N1CCC[C@H]1C(=O)N[C@@H](C)C(=O)N[C@@H](CC(C)C)C(=O)N[C@H](C(=O)N[C@@H](CO)C(=O)N[C@@H](Cc1c[nH]c2ccccc12)C(=O)N[C@H](C(=O)N[C@@H](CCCCN)C(=O)N[C@@H](CCCNC(=N)N)C(=O)N[C@@H](CCCCN)C(=O)N[C@@H](CCCNC(=N)N)C(=O)N[C@@H](CCC(N)=O)C(=O)N[C@@H](CCC(N)=O)C(N)=O)[C@@H](C)CC)[C@@H](C)CC)[C@@H](C)O)[C@@H](C)O)C(C)C)C(C)C` [melittin] as the compound, how does the “MIC of control substances” value [4] read?
Answer: 2.2 µM
